Assay results as given in patent EP0463173B1, “HAIR TONIC AND DRESSING COMPOSITION” (OTSUKA PHARMACEUTICAL CO., LTD., priority 1990, dated 1991).

Tested on: shaved mice
Assay: Hair grow-promoting effect in shaved mice (method of Kubo et al.), hair grow score
Assay type: in vivo, ddy male mice
Details: 0.2 ml of 0.2 % solution in 75 % ethanol applied to shaved back once a day, score 0-4, 15 mice
Procedure: According to the method of Kubo et al. (Yakugaku Zasshi 108 (10) P971-978 (1988)), an experiment was conducted using six weeks old ddy male mice. Depilatory cream was applied to the back of mice, and after 8 minutes, wiped off with absorbent cotton soaked with hot water at 40°C to remove hair at 4 to 5 cm². The next day, those mice with no injury and undepilated hair were selected and used as shaved mice. Each experimental group consisted of 15 mice.
Each 0.2 ml of a solution to be tested and a control solution were uniformly applied to the shaved part of mice with a brush once a day for 18 days.
Evaluation of the hair grow-promoting effect was conducted by evaluating a hair grow score at two day intervals for 18 days and testing a significance difference with Willcoxon Rank sum test. The following hair grow score standards were employed: 0: Completely no growth of hair is observed with naked eye 1: Recovery up to 25 % of normal state 2: Recovery up to 50 % of normal state 3: Recovery up to 75 % of normal state 4: Recovery up to nearly normal state and each standard score were further subdivided into three stages and hair grow score was obtained for each mouse.
The samples used for testing for effect were as follows: Control: 75 % etanol solution Preparation of the present invention: 0.2 % 6-[4-(1-cyclohexyl-1,2,3,4-tetrazol-5-yl)butoxy]-3,4-dihydrocarbostyril in 75 % ethanol solution The results are shown in Table 1.

## O=C1CCc2cc(OCCCCc3nnnn3C3CCCCC3)ccc2N1 [Prep. of invention, 6-[4-(1-cyclohexyl-1,2,3,4-tetrazol-5-yl)butoxy]-3,4-dihydrocarbostyril]
Day 8 of treatment
  mean hair grow score ± S.E.: 0.12±0.07
Day 10 of treatment
  mean hair grow score ± S.E.: 0.17±0.07
Day 12 of treatment
  mean hair grow score ± S.E.: 0.72±0.17
Day 14 of treatment
  mean hair grow score ± S.E.: 1.45±0.23
Day 16 of treatment
  mean hair grow score ± S.E.: 2.25±0.27
Day 18 of treatment
  mean hair grow score ± S.E.: 2.58±0.28
